{"source": "ChEMBL document CHEMBL1201862", "about": "“PubChem BioAssay data set” (2004)", "key": {"[1]": {"target": "T1, Sentrin-specific protease 1 (Homo sapiens, UniProt Q9P0U3)", "T1 sequence (Q9P0U3 whole entry, the tested form may be a part)": "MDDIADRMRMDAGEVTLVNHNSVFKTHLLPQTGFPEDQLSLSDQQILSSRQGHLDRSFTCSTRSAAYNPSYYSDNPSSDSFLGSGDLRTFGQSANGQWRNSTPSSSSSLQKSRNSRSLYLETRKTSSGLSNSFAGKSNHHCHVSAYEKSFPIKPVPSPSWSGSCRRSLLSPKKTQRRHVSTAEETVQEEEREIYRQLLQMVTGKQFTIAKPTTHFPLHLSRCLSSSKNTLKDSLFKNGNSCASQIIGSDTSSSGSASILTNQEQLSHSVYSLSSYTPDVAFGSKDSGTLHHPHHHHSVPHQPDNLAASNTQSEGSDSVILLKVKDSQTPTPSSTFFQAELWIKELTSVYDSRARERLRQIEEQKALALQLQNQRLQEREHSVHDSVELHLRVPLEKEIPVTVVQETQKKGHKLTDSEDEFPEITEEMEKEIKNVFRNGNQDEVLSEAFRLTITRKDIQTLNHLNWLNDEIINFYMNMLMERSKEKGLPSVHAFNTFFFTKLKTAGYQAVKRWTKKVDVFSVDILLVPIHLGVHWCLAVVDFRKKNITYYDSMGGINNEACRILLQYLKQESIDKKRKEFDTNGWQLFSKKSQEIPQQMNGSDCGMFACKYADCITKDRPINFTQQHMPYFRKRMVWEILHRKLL", "experiment": "Dose response confirmation of small molecule inhibitors of the catalytic domain of the SUMO protease, SENP1 in a FRET assay.", "type": "functional", "conditions": "read-out: IC50_Mean"}, "[2]": {"target": "T2, Fatty acid synthase (Homo sapiens, UniProt P49327)", "T2 sequence (P49327 whole entry, the tested form may be a part)": "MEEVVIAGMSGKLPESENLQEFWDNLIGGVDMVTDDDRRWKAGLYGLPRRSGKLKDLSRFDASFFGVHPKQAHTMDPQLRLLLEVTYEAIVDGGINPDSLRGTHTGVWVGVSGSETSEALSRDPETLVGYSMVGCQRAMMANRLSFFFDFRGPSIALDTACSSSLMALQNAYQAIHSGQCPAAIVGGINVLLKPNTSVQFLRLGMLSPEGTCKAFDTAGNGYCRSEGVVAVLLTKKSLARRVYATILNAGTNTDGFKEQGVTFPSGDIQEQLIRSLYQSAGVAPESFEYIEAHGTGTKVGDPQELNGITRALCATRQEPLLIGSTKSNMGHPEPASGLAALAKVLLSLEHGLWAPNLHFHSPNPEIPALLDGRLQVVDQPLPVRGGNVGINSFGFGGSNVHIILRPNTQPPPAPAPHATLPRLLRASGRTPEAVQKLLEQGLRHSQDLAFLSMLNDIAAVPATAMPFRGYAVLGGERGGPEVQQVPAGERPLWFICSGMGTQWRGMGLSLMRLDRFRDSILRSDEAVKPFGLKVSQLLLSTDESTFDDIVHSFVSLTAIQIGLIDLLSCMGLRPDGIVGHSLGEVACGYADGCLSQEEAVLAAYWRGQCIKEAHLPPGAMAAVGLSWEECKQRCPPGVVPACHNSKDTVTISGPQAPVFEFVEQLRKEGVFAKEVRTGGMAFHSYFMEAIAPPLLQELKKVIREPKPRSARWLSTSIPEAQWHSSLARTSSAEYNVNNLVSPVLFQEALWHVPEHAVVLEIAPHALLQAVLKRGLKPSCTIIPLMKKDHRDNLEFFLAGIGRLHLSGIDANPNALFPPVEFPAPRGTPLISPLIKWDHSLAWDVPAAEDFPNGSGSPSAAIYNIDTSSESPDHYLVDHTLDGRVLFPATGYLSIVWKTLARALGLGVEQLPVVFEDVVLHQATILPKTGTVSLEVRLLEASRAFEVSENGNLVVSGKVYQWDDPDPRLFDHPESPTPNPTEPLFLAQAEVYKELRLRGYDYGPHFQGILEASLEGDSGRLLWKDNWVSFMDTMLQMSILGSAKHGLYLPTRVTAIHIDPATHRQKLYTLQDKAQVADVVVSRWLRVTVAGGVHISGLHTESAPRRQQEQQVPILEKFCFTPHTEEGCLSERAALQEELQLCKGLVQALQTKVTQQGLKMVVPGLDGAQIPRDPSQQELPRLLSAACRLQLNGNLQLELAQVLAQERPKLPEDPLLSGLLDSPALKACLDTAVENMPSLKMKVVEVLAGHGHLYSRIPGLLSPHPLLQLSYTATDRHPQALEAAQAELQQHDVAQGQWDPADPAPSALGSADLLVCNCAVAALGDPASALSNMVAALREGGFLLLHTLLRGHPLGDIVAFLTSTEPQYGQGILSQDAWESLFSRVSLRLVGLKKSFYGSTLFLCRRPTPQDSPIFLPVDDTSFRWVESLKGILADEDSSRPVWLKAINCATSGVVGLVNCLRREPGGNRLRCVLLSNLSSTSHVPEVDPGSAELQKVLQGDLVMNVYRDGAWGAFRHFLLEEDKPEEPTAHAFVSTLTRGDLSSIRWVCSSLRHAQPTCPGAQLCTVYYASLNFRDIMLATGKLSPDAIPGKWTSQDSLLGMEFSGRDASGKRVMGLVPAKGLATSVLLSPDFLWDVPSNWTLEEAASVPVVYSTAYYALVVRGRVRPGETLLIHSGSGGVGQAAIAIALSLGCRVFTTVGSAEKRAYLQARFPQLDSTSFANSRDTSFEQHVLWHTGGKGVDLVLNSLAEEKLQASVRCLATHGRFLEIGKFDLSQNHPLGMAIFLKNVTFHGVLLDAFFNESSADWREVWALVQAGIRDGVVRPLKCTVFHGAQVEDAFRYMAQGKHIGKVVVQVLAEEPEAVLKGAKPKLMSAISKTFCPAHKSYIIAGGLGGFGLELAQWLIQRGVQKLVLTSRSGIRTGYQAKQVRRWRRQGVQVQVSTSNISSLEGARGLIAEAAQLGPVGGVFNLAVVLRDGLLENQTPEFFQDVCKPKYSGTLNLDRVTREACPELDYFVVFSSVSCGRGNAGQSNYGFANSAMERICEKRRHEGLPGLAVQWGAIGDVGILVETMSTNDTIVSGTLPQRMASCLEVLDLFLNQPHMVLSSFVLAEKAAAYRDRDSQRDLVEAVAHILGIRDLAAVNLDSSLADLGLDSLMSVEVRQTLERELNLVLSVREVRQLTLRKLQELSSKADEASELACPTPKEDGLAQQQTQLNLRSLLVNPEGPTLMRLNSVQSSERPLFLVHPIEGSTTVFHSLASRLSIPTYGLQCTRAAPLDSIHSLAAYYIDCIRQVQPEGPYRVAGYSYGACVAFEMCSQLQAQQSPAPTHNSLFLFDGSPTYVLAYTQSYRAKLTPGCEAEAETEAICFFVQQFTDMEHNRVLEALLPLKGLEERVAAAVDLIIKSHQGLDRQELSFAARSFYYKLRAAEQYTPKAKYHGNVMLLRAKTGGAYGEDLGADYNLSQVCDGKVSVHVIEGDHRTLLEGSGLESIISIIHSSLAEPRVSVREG", "experiment": "FAS thioesterase domain inhibitors, dose response, biochemical, endpoint fluorescence intensity, uHTS hits (AID 624327);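 further: fluorescence from hydrolysis of an O-methyl fluorescein acyl ester substrate by the enzyme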", "type": "functional"}, "[3]": {"target": "T1, Sentrin-specific protease 1", "experiment": "potency of human SENP1 inhibitors, dose response, biochemical, kinetic FRET (AID 651697)", "type": "functional", "conditions": "read-out: IC50_Mean"}, "[4]": {"target": "T2, Fatty acid synthase", "experiment": "FAS thioesterase domain inhibitors, dose response, biochemical, kinetic fluorescence intensity (AID 624326);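 further: rate of fluorescence rise from hydrolysis of a fluorogenic O-methyl fluorescein ester substrate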", "type": "functional"}, "[5]": {"target": "5-hydroxytryptamine receptor 2A (Mus musculus, UniProt P35363)", "type": "functional, cell-based"}, "[6]": {"target": "Mu-type opioid receptor (Homo sapiens, UniProt P35372)", "sequence (P35372 whole entry)": "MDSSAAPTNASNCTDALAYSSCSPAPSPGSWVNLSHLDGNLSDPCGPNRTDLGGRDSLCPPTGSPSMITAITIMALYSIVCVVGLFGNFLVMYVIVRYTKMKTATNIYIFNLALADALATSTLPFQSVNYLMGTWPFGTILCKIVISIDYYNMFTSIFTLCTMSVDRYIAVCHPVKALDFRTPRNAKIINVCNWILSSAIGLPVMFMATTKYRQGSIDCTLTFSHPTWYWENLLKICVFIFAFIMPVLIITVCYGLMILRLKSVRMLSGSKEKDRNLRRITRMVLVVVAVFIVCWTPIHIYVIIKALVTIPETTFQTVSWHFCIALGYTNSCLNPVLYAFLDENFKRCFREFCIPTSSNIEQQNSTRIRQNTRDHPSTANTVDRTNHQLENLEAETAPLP", "type": "functional, cell-based"}, "[7]": {"target": "Beta-galactosidase (Escherichia coli, UniProt Q8VNN2)", "sequence (Q8VNN2 whole entry)": "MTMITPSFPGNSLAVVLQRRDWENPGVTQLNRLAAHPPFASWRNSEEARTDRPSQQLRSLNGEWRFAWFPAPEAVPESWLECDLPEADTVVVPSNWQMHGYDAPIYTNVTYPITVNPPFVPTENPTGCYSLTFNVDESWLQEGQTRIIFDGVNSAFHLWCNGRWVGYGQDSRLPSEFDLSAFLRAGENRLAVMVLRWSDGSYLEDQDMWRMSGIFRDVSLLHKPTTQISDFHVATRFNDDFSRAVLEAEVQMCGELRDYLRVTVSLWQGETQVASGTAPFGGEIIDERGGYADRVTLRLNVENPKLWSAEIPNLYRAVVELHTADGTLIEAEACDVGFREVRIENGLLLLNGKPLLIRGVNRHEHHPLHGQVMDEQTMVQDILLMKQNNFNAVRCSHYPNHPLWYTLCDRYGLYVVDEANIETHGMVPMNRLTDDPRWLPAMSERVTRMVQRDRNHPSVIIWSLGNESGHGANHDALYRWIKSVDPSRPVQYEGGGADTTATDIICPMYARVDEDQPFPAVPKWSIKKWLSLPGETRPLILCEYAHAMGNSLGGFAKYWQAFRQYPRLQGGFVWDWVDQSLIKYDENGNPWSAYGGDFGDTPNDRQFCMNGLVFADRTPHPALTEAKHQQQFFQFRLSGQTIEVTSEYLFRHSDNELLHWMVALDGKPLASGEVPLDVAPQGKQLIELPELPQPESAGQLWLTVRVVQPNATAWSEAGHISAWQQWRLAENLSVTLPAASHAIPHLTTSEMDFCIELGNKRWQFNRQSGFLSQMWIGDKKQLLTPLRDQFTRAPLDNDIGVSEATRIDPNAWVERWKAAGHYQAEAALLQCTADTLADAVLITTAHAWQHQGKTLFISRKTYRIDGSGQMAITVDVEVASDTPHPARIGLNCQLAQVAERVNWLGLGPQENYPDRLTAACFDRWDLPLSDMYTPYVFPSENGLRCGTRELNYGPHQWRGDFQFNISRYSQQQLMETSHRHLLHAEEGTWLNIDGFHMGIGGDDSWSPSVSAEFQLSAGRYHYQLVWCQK", "experiment": "Dose response counterscreen for EBI2 assay utilizing the enzyme, b-galactosidase.", "type": "functional"}, "[8]": {"target": "T3, Corticotropin-releasing factor receptor 2/Corticotropin-releasing factor-binding protein (Homo sapiens, UniProt P24387+Q13324)", "T3 sequence (Q13324 whole entry)": "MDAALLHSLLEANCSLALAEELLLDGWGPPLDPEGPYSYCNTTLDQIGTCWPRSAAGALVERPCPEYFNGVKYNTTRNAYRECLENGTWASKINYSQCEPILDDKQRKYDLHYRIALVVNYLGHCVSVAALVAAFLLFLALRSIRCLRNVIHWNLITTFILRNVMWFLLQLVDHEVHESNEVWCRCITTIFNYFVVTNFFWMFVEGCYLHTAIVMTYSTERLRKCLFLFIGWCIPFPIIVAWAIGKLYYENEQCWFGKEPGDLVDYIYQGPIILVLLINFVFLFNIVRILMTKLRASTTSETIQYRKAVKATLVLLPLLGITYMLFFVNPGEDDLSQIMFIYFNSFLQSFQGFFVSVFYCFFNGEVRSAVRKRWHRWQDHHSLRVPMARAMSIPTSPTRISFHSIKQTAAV", "T3 sequence (P24387 whole entry)": "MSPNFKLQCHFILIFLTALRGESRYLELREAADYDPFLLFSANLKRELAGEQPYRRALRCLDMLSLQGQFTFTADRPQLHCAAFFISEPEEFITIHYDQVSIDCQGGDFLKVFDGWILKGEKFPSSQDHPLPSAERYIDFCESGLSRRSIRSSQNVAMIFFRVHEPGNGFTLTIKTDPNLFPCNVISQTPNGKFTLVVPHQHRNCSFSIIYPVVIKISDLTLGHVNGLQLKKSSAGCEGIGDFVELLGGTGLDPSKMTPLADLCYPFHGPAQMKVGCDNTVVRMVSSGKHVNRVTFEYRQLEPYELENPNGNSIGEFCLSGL", "experiment": "activators of CRF receptor 2 with binding protein – uHTS hits, confirmation (AID 602473)", "type": "functional", "conditions": "read-out: EC50_Mean"}, "[9]": {"target": "T3, Corticotropin-releasing factor receptor 2/Corticotropin-releasing factor-binding protein", "experiment": "Dose Response confirmation of uHTS hits for small molecule antagonists of the CRF-binding protein and CRF-R2 receptor complex.", "type": "functional", "conditions": "read-out: IC50_Mean"}, "[10]": {"target": "Beta-lactamase (Salmonella choleraesuis (strain SC-B67), UniProt Q5J463)", "sequence (Q5J463 whole entry)": "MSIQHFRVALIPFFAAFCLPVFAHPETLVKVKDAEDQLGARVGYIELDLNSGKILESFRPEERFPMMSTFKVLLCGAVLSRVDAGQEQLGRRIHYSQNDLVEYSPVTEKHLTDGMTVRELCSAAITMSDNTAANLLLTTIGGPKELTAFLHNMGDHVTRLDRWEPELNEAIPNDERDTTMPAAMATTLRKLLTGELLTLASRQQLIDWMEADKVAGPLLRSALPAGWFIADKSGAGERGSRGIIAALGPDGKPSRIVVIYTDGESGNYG"}, "[11]": {"target": "Beta-lactamase (Pseudomonas aeruginosa, UniProt Q79MP6)", "sequence (Q79MP6 whole entry)": "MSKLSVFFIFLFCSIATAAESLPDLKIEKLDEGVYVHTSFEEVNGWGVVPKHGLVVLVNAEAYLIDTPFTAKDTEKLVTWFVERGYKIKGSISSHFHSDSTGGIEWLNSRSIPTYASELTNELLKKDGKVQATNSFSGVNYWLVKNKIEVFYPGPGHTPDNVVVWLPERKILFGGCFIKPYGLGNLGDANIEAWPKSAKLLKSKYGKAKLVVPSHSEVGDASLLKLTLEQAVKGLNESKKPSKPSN"}, "[12]": {"tested_on": "Vero", "experiment": "Vero cell toxicity, dose response, cytotoxicity control, plate reader, cherry-pick samples (AID 687020)", "type": "functional, cell-based", "conditions": "Chlorocebus sabaeus"}}, "note": "Activity calls are given as the source filed them.", "data": [{"smiles": "Cc1coc(NC(=O)CSc2nc(-c3ccncc3)cc(C(F)(F)F)c2C#N)n1", "values": [{"measurement": "IC50", "setting": "[1]", "value": "25.4 µM (inactive)"}, {"measurement": "IC50", "setting": "[2]", "value": "18.5 µM (active)"}, {"measurement": "IC50", "setting": "[3]", "value": "35.9 µM (inactive)"}, {"measurement": "IC50", "setting": "[4]", "value": "14.8 µM (active)"}]}, {"smiles": "Cc1ccc2c(C)c(C(=O)Nc3c(C)n(C)n(-c4ccccc4)c3=O)oc2c1C", "values": [{"measurement": "EC50", "setting": "[5]", "value": "18.9 µM (inactive)"}, {"measurement": "EC50", "setting": "[6]", "value": "92.5 µM (inactive)"}]}, {"smiles": "CSc1ccc(/C=C/C(=O)N2CCN(c3ccccn3)CC2)cc1", "values": [{"measurement": "IC50", "setting": "[7]", "value": "> 80 µM (inactive)"}, {"measurement": "EC50", "setting": "[8]", "value": "> 53 µM (inactive)"}, {"measurement": "IC50", "setting": "[9]", "value": "> 47.1 µM (inactive)"}]}, {"smiles": "N#CC(C#N)=C1C=C2C=C(N3CCCCC3)CCC2CC1", "note": "(configuration not stated)", "values": [{"measurement": "IC50", "setting": "[10]", "value": "1.23 µM (active)"}, {"measurement": "IC50", "setting": "[11]", "value": "2.51 µM (active)"}]}, {"smiles": "CC(C)(CN1CCN(Cc2ccccc2)CC1)NS(=O)(=O)c1ccc(Cl)cc1", "values": [{"measurement": "AC50", "setting": "[12]", "value": "33.7 µM (active)"}]}]}
